# From patent US9090618B2, “Substituted benzimidazole-type piperidine compounds and uses thereof” (priority 2012, dated 2015)
# Target: human opioid receptor-like (ORL-1) (Homo sapiens (Human), UniProt P41146)
# Test: In vitro ORL-1 receptor [35S]GTPγS functional assay
# Assay type: biochemical
# Sequence of human opioid receptor-like (ORL-1) (P41146 whole entry): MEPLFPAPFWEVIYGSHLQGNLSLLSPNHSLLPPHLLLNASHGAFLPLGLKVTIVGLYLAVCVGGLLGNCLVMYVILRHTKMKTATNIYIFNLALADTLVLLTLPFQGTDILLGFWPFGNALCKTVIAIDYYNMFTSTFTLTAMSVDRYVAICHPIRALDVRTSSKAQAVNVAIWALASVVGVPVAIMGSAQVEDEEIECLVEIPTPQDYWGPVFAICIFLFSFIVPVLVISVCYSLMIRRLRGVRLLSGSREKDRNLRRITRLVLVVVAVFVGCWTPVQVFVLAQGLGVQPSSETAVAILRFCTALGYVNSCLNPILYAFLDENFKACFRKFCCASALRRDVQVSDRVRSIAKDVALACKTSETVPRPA
row,Compound,EC50 [nM]
1,"O=C(O)CCN1CC[C@H](c2nc3ccccc3n2[C@H]2C[C@H]3CCC[C@@H](C2)N3[C@@H]2C[C@@H]3CCCC[C@@H](C3)C2)C1 [H32d(ii), 3-((S)-3-(1-((1R,3R,5S)-9-((1R,6S,8s)-bicyclo[4.3.1]decan-8-yl)-9-azabicyclo[3.3.1]nonan-3-yl)-1H-benzo[d]imidazol-2-yl)pyrrolidin-1-yl)propanoic acid]",160 ± 35
2,"COc1cnc(-c2nc3ccccc3n2[C@H]2C[C@H]3CCC[C@@H](C2)N3[C@@H]2C[C@@H]3CCCC[C@@H](C3)C2)cn1 [ZA42, 1-((1R,3R,5S)-9-((1R,6S,8r)-bicyclo[4.3.1]decan-8-yl)-9-azabicyclo[3.3.1]nonan-3-yl)-2-(5-methoxypyrazin-2-yl)-1H-benzo[d]imidazole]",> 20000
3,"COc1cnc(-c2nc3ccccc3n2[C@H]2C[C@H]3CCC[C@@H](C2)N3[C@H]2C[C@@H]3CCC[C@@H](C3)C2)cn1 [ZA63, (1R,1′R,3r,3′R,5S,5′S)-3′-(2-(5-methoxypyrazin-2-yl)-1H-benzo[d]imidazol-1-yl)-9′-aza-3,9′-bi(bicyclo[3.3.1]nonane)]",> 20000
4,"O=C(O)CN1CCC(c2nc3ccccc3n2[C@H]2C[C@H]3CCC[C@@H](C2)N3[C@@H]2C[C@@H]3CCCC[C@@H](C3)C2)CC1 [ZA07, 2-(4-(1-((1R,3R,5S)-9-((1R,6S,8s)-bicyclo[4.3.1]decan-8-yl)-9-azabicyclo[3.3.1]nonan-3-yl)-1H-benzo[d]imidazol-2-yl)piperidin-1-yl)acetic acid]",140 ± 17
5,"O=c1cc(-c2nc3ccccc3n2[C@H]2C[C@H]3CCC[C@@H](C2)N3[C@@H]2C[C@@H]3CCCC[C@@H](C3)C2)[nH]c(=O)[nH]1 [ZA71, 6-(1-((1R,3R,5S)-9-((1R,6S,8r)-bicyclo[4.3.1]decan-8-yl)-9-azabicyclo[3.3.1]nonan-3-yl)-1H-benzo[d]imidazol-2-yl)pyrimidine-2,4(1H,3H)-dione]",> 20000
6,"O=C(O)C1CCN(Cc2nc3ccccc3n2[C@H]2C[C@H]3CCC[C@@H](C2)N3[C@H]2C[C@@H]3CCC[C@@H](C3)C2)CC1 [ZA23, 1-((1-((1R,1′R,3r,3′R,5S,5′S)-[3,9′-bi(9′-azabicyclo[3.3.1]nonan)]-3′-yl)-1H-benzo[d]imidazol-2-yl)methyl)piperidine-4-carboxylic acid]",> 20000
7,"O=C(O)CN1CCC[C@@H]1c1nc2ccccc2n1[C@H]1C[C@H]2CCC[C@@H](C1)N2C1CCCCCCCCC1 [E30c(ii), 2-((R)-2-(1-((1R,3r,5S)-9-cyclodecyl-9-azabicyclo[3.3.1]nonan-3-yl)-1H-benzo[d]imidazol-2-yl)pyrrolidin-1-yl)acetic acid]",336 ± 27
8,"c1ccc2c(c1)nc(-c1nnn[nH]1)n2[C@H]1C[C@H]2CCC[C@@H](C1)N2[C@@H]1C[C@@H]2CCCC[C@@H](C2)C1 [ZA39, 1-((1R,3R,5S)-9-((1R,6S,8r)-bicyclo[4.3.1]decan-8-yl)-9-azabicyclo[3.3.1]nonan-3-yl)-2-(1H-tetrazol-5-yl)-1H-benzo[d]imidazole]",> 20000
9,"COCCOCCOCCN1CCC[C@H](c2nc3ccccc3n2[C@H]2C[C@H]3CCC[C@@H](C2)N3[C@H]2C[C@@H]3CCC[C@@H](C3)C2)C1 [ZA12, (1R,1′R,3r,3′R,5S,5′S)-3′-(2-((S)-1-(2-(2-(2-methoxyethoxy)ethoxy)ethyl)piperidin-3-yl)-1H-benzo[d]imidazol-1-yl)-9′-aza-3,9′-bi(bicyclo[3.3.1]nonane)]",390 ± 34
10,"O=C(O)CCN1CCC(c2nc3ccccc3n2[C@H]2C[C@H]3CCC[C@@H](C2)N3[C@@H]2C[C@@H]3CCCC[C@@H](C3)C2)CC1 [ZA08, 3-(4-(1-((1R,3R,5S)-9-((1R,6S,8s)-bicyclo[4.3.1]decan-8-yl)-9-azabicyclo[3.3.1]nonan-3-yl)-1H-benzo[d]imidazol-2-yl)piperidin-1-yl)propanoic acid]",253 ± 20
11,"COCCOCCOCCN1CCC[C@@H](c2nc3ccccc3n2[C@H]2C[C@H]3CCC[C@@H](C2)N3[C@H]2C[C@@H]3CCC[C@@H](C3)C2)C1 [ZA11, (1R,1′R,3r,3′R,5S,5′S)-3′-(2-((R)-1-(2-(2-(2-methoxyethoxy)ethoxy)ethyl)piperidin-3-yl)-1H-benzo[d]imidazol-1-yl)-9′-aza-3,9′-bi(bicyclo[3.3.1]nonane)]",502 ± 99
